Laboratory results taken from the supplement of paper PMC10307832.

Columns and labels:
Assay in all cases: relative viability (nuclei count vs DMSO), 5 days (fraction); higher = more cells survive
[1] = compound: C1=CC2=NC=CN=C2C=C1/C=C/3\C(=O)NC(=O)S3 + Nc1ncn([C@H]2C[C@H](O)[C@@H](CO)O2)c(=O)n1 [Decitabine] (partner 2 µM)
How it was run: (§1)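 Lung cancer cell lines, seeded in 1536-well plates, were treated the following day by pin tool with a single drug or with five library-drug doses (not always all listed) in √10 steps on top of a fixed anchor-drug dose. Cells were fixed and nuclei stained in one step after 5 days, and nuclei were counted. Relative viability is the nuclei count for treated wells divided by that for vehicle wells, reported as medians of duplicate plates.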

[2] = compound: C1=CC2=NC=CN=C2C=C1/C=C/3\C(=O)NC(=O)S3 + C[C@@H](Oc1cc(-c2cnn(C3CCNCC3)c2)cnc1N)c1c(Cl)ccc(F)c1Cl [Crizotinib] (partner 1 µM)
How it was run: as §1

BGJ398 + Tozasertib = compound: CCN1CCN(c2ccc(Nc3cc(N(C)C(=O)Nc4c(Cl)c(OC)cc(OC)c4Cl)ncn3)cc2)CC1 [BGJ398] + Cc1cc(Nc2cc(N3CCN(C)CC3)nc(Sc3ccc(NC(=O)C4CC4)cc3)n2)n[nH]1 [Tozasertib] (partner 0.1 µM)
How it was run: as §1

BGJ398 + Vorinostat = compound: CCN1CCN(c2ccc(Nc3cc(N(C)C(=O)Nc4c(Cl)c(OC)cc(OC)c4Cl)ncn3)cc2)CC1 [BGJ398] + O=C(CCCCCCC(=O)Nc1ccccc1)NO [Vorinostat] (partner 1 µM)
How it was run: as §1

Cell Line | relative viability ([1]; first compound 0.02 µM) | relative viability ([1]; first compound 0.06325 µM) | relative viability ([1]; first compound 0.2 µM) | relative viability ([1]; first compound 0.6325 µM) | relative viability ([1]; first compound 2 µM) | relative viability ([2]; first compound 0.02 µM) | relative viability ([2]; first compound 0.06325 µM) | relative viability ([2]; first compound 0.2 µM) | relative viability ([2]; first compound 0.6325 µM) | relative viability ([2]; first compound 2 µM) | relative viability (BGJ398 + Tozasertib; first compound 0.01 µM) | relative viability (BGJ398 + Tozasertib; first compound 0.03162 µM) | relative viability (BGJ398 + Tozasertib; first compound 0.1 µM) | relative viability (BGJ398 + Tozasertib; first compound 0.3162 µM) | relative viability (BGJ398 + Tozasertib; first compound 1 µM) | relative viability (BGJ398 + Vorinostat; first compound 0.01 µM) | relative viability (BGJ398 + Vorinostat; first compound 0.03162 µM) | relative viability (BGJ398 + Vorinostat; first compound 0.1 µM) | relative viability (BGJ398 + Vorinostat; first compound 0.3162 µM) | relative viability (BGJ398 + Vorinostat; first compound 1 µM)
201T | 0.901 | 0.864 | 0.824 | 0.87 | 0.879 | 0.995 | 1.07 | 1.06 | 0.994 | 1.06 | 1.05 | 0.877 | 0.965 | 0.914 | 0.91 | 1.2 | 0.947 | 0.949 | 0.929 | 0.885
NCI-H2126 | 0.567 | 0.647 | 0.567 | 0.527 | 0.481 | 0.995 | 1.11 | 0.97 | 0.974 | 0.957 | 0.892 | 0.825 | 0.911 | 0.927 | 0.868 | 0.768 | 0.787 | 0.861 | 0.775 | 0.765
HOP-62 | 0.188 | 0.278 | 0.215 | 0.191 | 0.254 | 1.1 | 0.953 | 1.03 | 0.93 | 0.911 | 0.375 | 0.399 | 0.411 | 0.395 | 0.364 | 0.694 | 0.618 | 0.626 | 0.575 | 0.602
NCI-H520 | 0.481 | 0.545 | 0.482 | 0.436 | 0.562 | 0.721 | 1.01 | 0.713 | 0.785 | 0.756 | 0.424 | 0.421 | 0.321 | 0.273 | 0.271 | 0.637 | 0.563 | 0.503 | 0.269 | 0.332
NCI-H1755 | 0.74 | 0.628 | 0.729 | 0.689 | 0.685 | 0.747 | 0.786 | 0.86 | 0.863 | 0.817 | 0.563 | 0.646 | 0.552 | 0.623 | 0.546 | 0.714 | 0.746 | 0.827 | 0.733 | 0.72
NCI-H2023 | 0.205 | 0.237 | 0.205 | 0.195 | 0.222 | 0.707 | 0.693 | 0.608 | 0.61 | 0.613 | 0.309 | 0.345 | 0.301 | 0.232 | 0.255 | 0.673 | 0.683 | 0.715 | 0.664 | 0.54
NCI-H2009 | 0.353 | 0.388 | 0.358 | 0.381 | 0.352 | 1.06 | 1.1 | 1.05 | 1.04 | 1.03 | 0.732 | 0.761 | 0.733 | 0.734 | 0.697 | 0.714 | 0.729 | 0.74 | 0.687 | 0.692
